Experimental data published in patent US10800791B2, “Triazole ACC inhibitors and uses thereof” (Gilead Apollo, LLC, priority 2015, dated 2020).
Converted amounts (≈) assume the structure as drawn. Where two headings read alike, the source gives them in different places.

Assays:
C. krusei = experiment: Antifungal Activity Assay (broth microtiter MIC), C. krusei; format: cell-based, Candida krusei; conditions: Pichia kudriavzevii, ATCC6258, 48 h, ATCC 6258, 3 replicates, MIC recorded at 48 h, read-out: MIC, C. krusei ATCC 6258
How it was run: (§1)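 CLSI M27-A3 microdilution; RPMI 1640+MOPS; 2.5×10^3 CFU/mL final inoculum; cultures from Sabouraud dextrose agar, 35° C overnight; compound working solution 128 μg/mL from 1 mg/mL DMSO stock; visual MIC at 48 h vs growth control.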

[1] = tested on: Fusarium moniliforme (Fm); experiment: Growth inhibition assay of fungal pathogens, Fm; format: cell-based; conditions: Fusarium verticillioides, 48 h, Fusarium moniliforme, read-out: Concentration at 90% Inhibition Fm
How it was run: (§2)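 Pathogen growth in 17% V8 broth is measured by OD600 at 24 and 48 hours, after blank subtraction, in the presence of compound at 50, 10 and 2 ppm or 2, 0.4 and 0.08 ppm. Inhibition in percent comes from 48-hour readings against the DMSO control.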

human (hACC2) = human (hACC2) (Homo sapiens, UniProt O00763); experiment: In vitro ACC inhibition assay (ADP-Glo), hACC2; format: biochemical; conditions: 5 nM ACC2, 20 μM ATP, 20 μM acetyl-CoA
Chain of human (hACC2) (O00763 whole entry): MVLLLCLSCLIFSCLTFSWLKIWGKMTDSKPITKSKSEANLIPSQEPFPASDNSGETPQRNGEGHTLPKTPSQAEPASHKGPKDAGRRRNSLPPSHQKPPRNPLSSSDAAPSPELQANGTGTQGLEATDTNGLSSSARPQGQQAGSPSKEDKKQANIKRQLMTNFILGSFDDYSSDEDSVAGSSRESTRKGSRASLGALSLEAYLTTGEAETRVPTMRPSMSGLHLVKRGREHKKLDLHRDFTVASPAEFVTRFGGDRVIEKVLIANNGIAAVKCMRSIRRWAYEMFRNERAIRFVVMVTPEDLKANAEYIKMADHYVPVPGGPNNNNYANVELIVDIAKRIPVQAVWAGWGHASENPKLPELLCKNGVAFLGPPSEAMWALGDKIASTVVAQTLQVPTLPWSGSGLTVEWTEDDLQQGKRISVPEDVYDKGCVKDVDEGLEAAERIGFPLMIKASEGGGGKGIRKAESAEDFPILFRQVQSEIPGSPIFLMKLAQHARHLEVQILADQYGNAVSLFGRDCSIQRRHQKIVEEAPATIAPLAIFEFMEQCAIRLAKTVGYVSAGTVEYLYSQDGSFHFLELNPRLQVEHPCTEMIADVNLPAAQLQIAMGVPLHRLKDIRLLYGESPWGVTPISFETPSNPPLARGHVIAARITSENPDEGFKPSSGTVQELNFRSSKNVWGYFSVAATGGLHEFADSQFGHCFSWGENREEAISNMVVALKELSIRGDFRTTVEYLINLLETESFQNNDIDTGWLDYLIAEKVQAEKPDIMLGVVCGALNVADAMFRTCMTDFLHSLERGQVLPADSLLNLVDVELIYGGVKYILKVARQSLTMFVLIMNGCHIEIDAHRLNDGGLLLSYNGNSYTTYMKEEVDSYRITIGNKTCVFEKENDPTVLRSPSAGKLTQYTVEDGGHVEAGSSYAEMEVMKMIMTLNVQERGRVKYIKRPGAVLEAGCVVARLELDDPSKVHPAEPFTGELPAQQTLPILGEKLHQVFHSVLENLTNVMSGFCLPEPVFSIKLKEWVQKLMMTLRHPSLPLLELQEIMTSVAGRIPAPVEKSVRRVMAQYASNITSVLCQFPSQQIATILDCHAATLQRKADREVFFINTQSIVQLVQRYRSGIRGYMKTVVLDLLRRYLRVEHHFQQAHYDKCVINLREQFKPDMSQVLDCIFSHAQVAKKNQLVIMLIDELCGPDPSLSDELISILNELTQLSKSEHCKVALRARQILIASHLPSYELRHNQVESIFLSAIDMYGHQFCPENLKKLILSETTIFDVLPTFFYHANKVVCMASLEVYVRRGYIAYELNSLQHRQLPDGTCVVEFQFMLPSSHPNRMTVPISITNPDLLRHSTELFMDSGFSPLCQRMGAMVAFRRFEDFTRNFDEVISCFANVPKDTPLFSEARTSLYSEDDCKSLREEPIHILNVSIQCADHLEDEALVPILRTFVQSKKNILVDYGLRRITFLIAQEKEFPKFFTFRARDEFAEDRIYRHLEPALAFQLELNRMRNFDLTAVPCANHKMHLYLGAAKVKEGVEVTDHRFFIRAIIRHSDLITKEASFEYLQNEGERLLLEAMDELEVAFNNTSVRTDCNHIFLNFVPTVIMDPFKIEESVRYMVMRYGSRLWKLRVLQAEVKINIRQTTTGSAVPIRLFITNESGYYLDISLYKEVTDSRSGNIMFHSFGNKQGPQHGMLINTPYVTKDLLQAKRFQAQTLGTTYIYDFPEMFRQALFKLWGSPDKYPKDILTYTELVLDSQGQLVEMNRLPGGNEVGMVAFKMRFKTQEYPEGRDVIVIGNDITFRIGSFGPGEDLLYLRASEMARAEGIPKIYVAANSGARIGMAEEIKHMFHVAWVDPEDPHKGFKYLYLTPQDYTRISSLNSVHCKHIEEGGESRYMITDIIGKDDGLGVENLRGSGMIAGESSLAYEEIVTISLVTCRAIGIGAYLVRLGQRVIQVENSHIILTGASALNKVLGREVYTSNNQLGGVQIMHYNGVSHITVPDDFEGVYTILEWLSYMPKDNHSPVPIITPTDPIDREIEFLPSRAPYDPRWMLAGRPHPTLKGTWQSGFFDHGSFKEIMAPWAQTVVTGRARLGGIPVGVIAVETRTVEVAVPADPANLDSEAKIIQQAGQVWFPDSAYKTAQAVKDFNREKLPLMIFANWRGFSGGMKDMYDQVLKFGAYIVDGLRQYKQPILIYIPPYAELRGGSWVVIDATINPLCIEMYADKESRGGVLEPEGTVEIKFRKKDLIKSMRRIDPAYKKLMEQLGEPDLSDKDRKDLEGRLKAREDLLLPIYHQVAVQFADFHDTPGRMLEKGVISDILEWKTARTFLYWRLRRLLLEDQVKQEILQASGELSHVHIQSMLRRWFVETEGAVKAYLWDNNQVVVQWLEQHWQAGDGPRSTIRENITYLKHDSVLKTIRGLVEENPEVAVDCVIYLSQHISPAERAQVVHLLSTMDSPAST
Procedure: The detailed procedure is as follows. […] 10 μL ADP glo reagent was added. […] 20 μL kinase detection reagent was added.

Rhizoctonia solani (Rs) = experiment: Growth inhibition assay of fungal pathogens, Rs; format: cell-based; conditions: 48 h, mycelial plugs, read-out: Concentration at 90% Inhibition Rs
C. albicans = experiment: Antifungal Activity Assay (broth microtiter MIC), C. albicans; format: cell-based, Candida albicans; conditions: Candida albicans, ATCC90028, 48 h, ATCC 90028, 3 replicates, MIC recorded at 48 h, read-out: MIC, C. albicans ATCC 90028
How it was run: as §1

Diplodia maydis (Dm) = experiment: Growth inhibition assay of fungal pathogens, Dm; format: cell-based; conditions: Stenocarpella maydis, 48 h, Diplodia maydis, read-out: Concentration at 90% Inhibition Dm
How it was run: as §2

Septoria tritici (St) = experiment: Growth inhibition assay of fungal pathogens, St; format: cell-based; conditions: Zymoseptoria tritici, 48 h, Septoria tritici, read-out: Concentration at 90% Inhibition St
How it was run: as §2

C. parapsilosis = experiment: Antifungal Activity Assay (broth microtiter MIC), C. parapsilosis; format: cell-based, Candida parapsilosis; conditions: Lodderomyces parapsilosis, ATCC22019, 48 h, ATCC 22019, 3 replicates, MIC recorded at 48 h, read-out: MIC, C. parapsilosis ATCC 22019
How it was run: as §1

[2] = tested on: Phytophthora capsici (Pc); experiment: Growth inhibition assay of fungal pathogens, Pc; format: cell-based; conditions: 48 h, read-out: Concentration at 90% Inhibition Pc
How it was run: as §2

[3] = tested on: Collectotrichum graminicola (Cg); experiment: Growth inhibition assay of fungal pathogens, Cg; format: cell-based; conditions: 48 h, Collectotrichum graminicola, read-out: Concentration at 90% Inhibition Cg
How it was run: as §2

[4] = tested on: Fusarium virguliforme (Fv); experiment: Growth inhibition assay of fungal pathogens, Fv; format: cell-based; conditions: 48 h, read-out: Concentration at 90% Inhibition Fv
How it was run: as §2

[5] = growth inhibition at 48 hours vs 2% DMSO control
[6] = growth inhibition vs 2% DMSO control at 48 hours

| Structure (SMILES) | MIC (C. krusei; Table 3a) [mg/L] | MIC (C. krusei; Table 3b (additional results)) [mg/L] | IC90 [1, 5] [mg/L] | IC90 [1, 6] [mg/L] | IC50 (human (hACC2); Table 2a) [µM] | IC50 (human (hACC2); Table 2b, additional results) [µM] | IC90 (Rhizoctonia solani (Rs); [5]) [mg/L] | IC90 (Rhizoctonia solani (Rs); [6]) [mg/L] | MIC (C. albicans; Table 3a) [mg/L] | MIC (C. albicans; Table 3b (additional results)) [mg/L] | IC90 (Diplodia maydis (Dm); [5]) [mg/L] | IC90 (Diplodia maydis (Dm); [6]) [mg/L] | IC90 (Septoria tritici (St); [5]) [mg/L] | IC90 (Septoria tritici (St); [6]) [mg/L] | MIC (C. parapsilosis; Table 3a) [mg/L] | MIC (C. parapsilosis; Table 3b (additional results)) [mg/L] | IC90 [2, 5] [mg/L] | IC90 [2, 6] [mg/L] | IC90 [3, 5] [mg/L] | IC90 [3, 6] [mg/L] | other results |
| --- | --- | --- | --- | --- | --- | --- | --- | --- | --- | --- | --- | --- | --- | --- | --- | --- | --- | --- | --- | --- | --- |
| COc1ccc(F)cc1[C@H](Cn1c(=O)n([C@@H](C)C(=O)NC2CCC2)c(=O)c2c(C)c(-n3nccn3)sc21)OCCO [Compound I-77, (S)—N-cyclobutyl-2-(1-((R)-2-(5-fluoro-2-methoxyphenyl)-2-(2-hydroxyethoxy)ethyl)-5-methyl-2,4-dioxo-6-(2H-1,2,3-triazol-2-yl)-1,4-dihydrothieno[2,3-d]pyrimidin-3(2H)-yl)propanamide] | 2.1 to 4 (≈ 3.58 to 6.82 µM) | 0.25 to 1 (≈ 0.426 to 1.7 µM) | 0.08 (≈ 0.136 µM) | 0.08 (≈ 0.136 µM) | 0.01 to 0.04 | 0.01 to 0.04 | 2 (≈ 3.41 µM) | 2 (≈ 3.41 µM) | 1.1 to 2 (≈ 1.88 to 3.41 µM) | 2.01 to 4 (≈ 3.43 to 6.82 µM) | 2 (≈ 3.41 µM) | 2 (≈ 3.41 µM) | > 50 | > 50 | 1.1 to 2 (≈ 1.88 to 3.41 µM) | 0.25 to 1 (≈ 0.426 to 1.7 µM) | > 50 | > 50 | 2 (≈ 3.41 µM) | 10 (≈ 17 µM) | IC90 [4, 5]: 0.4 mg/L (≈ 0.682 µM); IC90 [4, 6]: 0.4 mg/L (≈ 0.682 µM) |
| COc1ccc(F)cc1[C@H](Cn1c(=O)n([C@@H](C)C(=O)N(C)C(C)C)c(=O)c2c(C)c(-n3nccn3)sc21)OCCO [Compound I-78, (S)-2-(1-((R)-2-(5-fluoro-2-methoxyphenyl)-2-(2-hydroxy-ethoxy)ethyl)-5-methyl-2,4-dioxo-6-(2H-1,2,3-triazol-2-yl)-1,4-dihydrothieno[2,3-d]pyrimidin-3(2H)-yl)-N-isopropyl-N-methylpropanamide] | 2.1 to 4 (≈ 3.57 to 6.8 µM) | 1.01 to 2 (≈ 1.72 to 3.4 µM) | 0.08 (≈ 0.136 µM) | 0.08 (≈ 0.136 µM) | 0.01 to 0.04 | 0.01 to 0.04 | 0.08 (≈ 0.136 µM) | 0.08 (≈ 0.136 µM) | 2.1 to 4 (≈ 3.57 to 6.8 µM) | 1.01 to 2 (≈ 1.72 to 3.4 µM) | 2 (≈ 3.4 µM) | 2 (≈ 3.4 µM) | 10 (≈ 17 µM) | > 50 | 2.1 to 4 (≈ 3.57 to 6.8 µM) | 2.01 to 4 (≈ 3.41 to 6.8 µM) | > 50 | > 50 | 0.4 (≈ 0.68 µM) | 0.4 (≈ 0.68 µM) | IC90 [4, 5]: 0.4 mg/L (≈ 0.68 µM); IC90 [4, 6]: 0.4 mg/L (≈ 0.68 µM) |
